Experimental data from patent EP1232754A2, “Use of cationic helix peptides for treatment of sepsis and for detection and removal of endotoxins” (Commonwealth Biotechnologies, Inc., priority 2001, dated 2002).
pKd: −log10 of the molar value. Bridges are numbered along the chain shown (N, C = ends). Roman numbers before positions name the chains, in order. [ ]: non-standard residue; d: D form. Dap = NC[C@H](N)C(=O)O

Legend:
E. coli (strain JM 109) [1] = test: Neutralization of endotoxin presented by intact E. coli, endotoxin chromogenic assay; format: biochemical, Escherichia coli; settings: 3e06 or 3e07 E. coli per mL; increasing peptide concentrations; within 10 min at 37°C (Figure 5)
E. coli (strain JM 109) [2] = test: as above; format: biochemical, Escherichia coli; settings: TR3 CONST 200 µg/mL; for % neutralization / Endotoxin Equivalents: 10 min, 37°C
Experimental: LPS is presented on the surface of gram-negative bacteria, such as Escherichia coli (E. coli). It was thus of interest to determine whether TR3 CONST would bind LPS present on whole bacterial cells. The assay method used was the endotoxin chromogenic assay as described above.
Thus, increasing amounts of E. coli (strain JM 109) were incubated (10 min; 37°C) in the presence or absence of 200 µg/mL TR3 CONST in 10 mM phosphate-150 mM NaCI-3 mM KCI buffer, pH 7.4. An aliquot of the incubation mixture was then assayed for residual endotoxin activity as previously described.
Equivalent endotoxin concentrations are deduced by reference to the endotoxin calibration curve.

[3] = Neutralization of endotoxin added to plasma or buffer, kinetic chromogenic Limulus Amebocyte Lysate endotoxin assay; format: biochemical
Description: The presence of endotoxin may routinely be measured using, for example, a kinetic chromogenic method. The assay involves a complete set of enzyme reactions which are described in detail in the following publications, each of which is hereby incorporated by reference. Endosafe Limulus Amebocyte Lysate Endochrome-K™ package insert. (Endosafe, Charleston, SC) Pearson III, F., Pyrogens/Endotoxins, LAL Testing and Depyrogenation, 1985. Watson, S., Levin, J., and Novitsky, T., Progress in Clinical and Biological Research, Endotoxins and their detection with the Limulus Amebocyte Lysate Test, 93.
In the course of the endotoxin assay, a calibration curve is prepared which is a plot of logarithm of the time of the kinetic endpoint of a chromogenic reaction versus the logarithm of known concentrations of endotoxin.
Thus, if endotoxin is added to aqueous buffer solutions or to plasma the amount of endotoxin present can be assayed by reference to the calibration curve. Similarly, if plasma, plasma fractions, patient samples or any test solution contains an endogenous level of endotoxin, the level can also be determined by reference to the calibration curve.
Endotoxin was purposely added to plasma to a final concentration of 10 ng/mL and increasing concentrations of the compounds Arg Helix #2 (a monomeric cationic helix peptide), Bis Arg Helix #2 (which contains 2 copies of Arg Helix #2), Tris Arg Helix #3 (which contains 3 copies of Arg Helix #3), Tetra Arg Helix #3 (4 copies of Arg Helix #3) or Tris Arg Helix #3 (constrained) (3 copies of Arg Helix #3 constrained by design to present a "binding groove" within the molecule) were added to these same samples (Table 1).

[4] = Titration circular dichroism spectroscopy of endotoxin binding; settings: CD titration
Experimental: Circular dichroism (CD) spectroscopy can be used to determine the fractional percent of secondary structural elements present in a peptide preparation. Titration CD spectroscopy can be used to assess the effect of binding a ligand on the reorganization of peptide structure (You, Scarsdale, and Harris 1991; Sobel, Soler, et al 1992; Soler, Sobel and Harris 1992; Tyler-Cross, Sobel et al 1993; Tyler-Cross, Sobel, Marques et al, 1994). Thus, incremental amounts of endotoxin were added to a solution of TR3 CONST and the effect of binding endotoxin by the peptide was assessed by CD spectroscopy.
By CD, Tris Arg Helix #3 (constrained) is 18% helix in solution (20°C) but complexation with endotoxin increases the helix character of the peptide to nearly 50% (Figure 3). Note that binding of endotoxin is dose dependent and saturable.

I: Ac-AEARARRAAARAARRAKKP[Dap]E-NH2 / II: Ac-AEARARRAAARAARRA / III: Ac-AEARARRAAARAARRA (amide I:18-II:C, I:20-III:C) [Tris Arg Helix #3 (constrained)]
neutralization of endotoxin as presented on the surface of E. coli (E. coli (strain JM 109) [1]): dose dependent neutralization | % neutralization (E. coli (strain JM 109) [2]; E. coli 3e03 organisms/mL): 100% | Endotoxin Equivalents (E. coli (strain JM 109) [2]; E. coli 3e03 organisms/mL): 0.00 ng/mL | % neutralization (E. coli (strain JM 109) [2]; E. coli 3e04 organisms/mL): 100% | Endotoxin Equivalents (E. coli (strain JM 109) [2]; E. coli 3e04 organisms/mL): 0.00 ng/mL | % neutralization (E. coli (strain JM 109) [2]; E. coli 3e05 organisms/mL): 100% | Endotoxin Equivalents (E. coli (strain JM 109) [2]; E. coli 3e05 organisms/mL): 0.00 ng/mL | % neutralization (E. coli (strain JM 109) [2]; E. coli 3e06 organisms/mL): 87.9% | Endotoxin Equivalents (E. coli (strain JM 109) [2]; E. coli 3e06 organisms/mL): 6.97 ng/mL | % neutralization (E. coli (strain JM 109) [2]; E. coli 3e07 organisms/mL): 48.8% | Endotoxin Equivalents (E. coli (strain JM 109) [2]; E. coli 3e07 organisms/mL): 94.3 ng/mL | Endotoxin Equivalents (E. coli (strain JM 109) [2]; E. coli 3e08 organisms/mL): 440.0 ng/mL | neutralization of the endotoxin activity (E. coli (strain JM 109) [2]; E. coli up to 3e06 organisms/mL): complete neutralization | endotoxin quantitatively bound ([3]; 1 mg/ml peptide, water or plasma solution): > 1 µg/mL | Percent Binding of ([3]; Endotoxin 5, peptide 2.5 (ng/mL and mg/mL)): 100% | Percent Binding of ([3]; Endotoxin 50, peptide 2.5 (ng/mL and mg/mL)): 100% | Percent Binding of ([3]; Endotoxin 500, peptide 1.0 (ng/mL and mg/mL)): ~100% | neutralization of endotoxin added to aqueous samples ([3]; aqueous samples, compared with plasma): same results were obtained | pKd [4]: 6.06 | N, stoichiometry of binding (endotoxin:peptide) [4]: 0.91
